This is an account of results in patent US20260308173A1, “OXAZOLOPYRIDIN-7(4H)-ONE WRN INHIBITORS” (NIMBUS WADJET, INC., priority 2023, published 2026).

One experiment has as its target T1, p21 (Homo sapiens).
T1 construct: p21 in-cell western after 24 h, GAPDH normalised
The experiment is described as follows: Effect on p21 induction in HCT116 cells. To be noted: HCT116 colon carcinoma cells, 24 h, p21/GAPDH ratio, percent activation vs internal reference WRN inhibitor; read-out: P21_EC50. It counts as cell-based. As to the method: Example 3: Method for Determining Effect on p21 Induction in Cells
The colon carcinoma cell line HCT116 was obtained from ATCC and cultured in growth medium consisting of Mccoy's 5A Medium (Gibco 16600108) supplemented with 10% FBS (Transgene FS201-02) and 100 units/mL penicillin-streptomycin (Gibco 15140122) and maintained at 37° C. under 5% CO2. On the day of seeding, 2,000 cells in 30 μL of culture media were plated per well to Poly-D-Lysine 384 Well Black Clear Plates (Biocoat 356663) and incubated overnight at 37° C. under 5% CO2. The following day, compounds were serially diluted in DMSO for a total of 11 test concentrations. The typical starting concentration of cpds was 10 μM with 2-fold dilutions. Next, 150 nL of diluted compound was added in duplicate to the assay plate, using an Echo 655 (Labcyte). The plate was centrifuged at 500 RPM for 1 min and then incubated at 37° C. under 5% CO2 for 24 h. After 24 h, medium was removed, and cells were fixed by adding 40 μL of 4% paraformaldehyde solution to each well and incubated for 20 min at room temperature. The plate was then washed 4 times with 100 μL per well of wash buffer (PBS with 0.1% Tween-20) using a microplate washer. Next, 30 μL of ice-cold methanol was added to each well and the plate was incubated at −20° C. for 10 min. The plate was washed 4 times with 100 μL per well of wash buffer by a microplate washer, then 30 μL per well of blocking buffer ((Intercept PBS blocking buffer (LI-COR 927-70001) with 0.05% Tween-20)) was added and the plate was incubated at room temperature with shaking for 2h. Next, to each test well, 20 μL of primary antibody solution ((p21 Waf1/CIP (12D1) Rabbit mAb (Cell Signaling Technologies 2947) diluted 1:1000 and GAPDH (D4C6R) Mouse mAb (Cell Signaling Technologies 97166) diluted 1:2000 in blocking buffer)) was added and the plate was placed at 4° C., overnight. The following day, the plate was washed 5 times with 100 μL per well of wash buffer using a microplate washer for 5 min. 20 μL per well of secondary antibody ((IRDye 680CW Goat anti-Mouse IgG (H+L) (LI-COR 926-68070) diluted 1:2000 in Blocking Buffer and IRDye 800CW Goat anti-Rabbit IgG (H+L) (LI-COR 926-32211) diluted 1:2000 in Blocking Buffer)) was then added and the plate was stored for 2 h in the dark at room temperature with shaking. The plate was then washed 4 times with 100 μL per well of wash buffer again using a microplate washer. Finally, the p21 signal and the GAPDH signal were quantified using a LI-COR Odyssey CLx Imager machine reading at 800 nm and 700 nm, respectively. Each plate contained DMSO control (low control) and an internal reference WRN inhibitor (high control) respectively. For quantitation, the 800 nm/700 nm ratio was calculated for each well to give fold p21 induction and then percent activation for each compound well was calculated as follows ((100×(ratio cpd well−ratio low control)/(ratio high control−ratio low control)). EC50 values for each compound was generated after non-linear regression curve fitting using commercially available software.

The target in another experiment is T2, human Werner helicase (Homo sapiens, UniProt Q14191, L1074F).
T2 construct: Uniprot Q14191, amino acids 517-1235 with L1074F point mutation; TEV-cleavable 8xHis tag (C, cleaved yes); made in house; host or cells: Sf9 insect cells (baculovirus)
T2 sequence (Q14191 with tags, fused parts or gaps L1074F): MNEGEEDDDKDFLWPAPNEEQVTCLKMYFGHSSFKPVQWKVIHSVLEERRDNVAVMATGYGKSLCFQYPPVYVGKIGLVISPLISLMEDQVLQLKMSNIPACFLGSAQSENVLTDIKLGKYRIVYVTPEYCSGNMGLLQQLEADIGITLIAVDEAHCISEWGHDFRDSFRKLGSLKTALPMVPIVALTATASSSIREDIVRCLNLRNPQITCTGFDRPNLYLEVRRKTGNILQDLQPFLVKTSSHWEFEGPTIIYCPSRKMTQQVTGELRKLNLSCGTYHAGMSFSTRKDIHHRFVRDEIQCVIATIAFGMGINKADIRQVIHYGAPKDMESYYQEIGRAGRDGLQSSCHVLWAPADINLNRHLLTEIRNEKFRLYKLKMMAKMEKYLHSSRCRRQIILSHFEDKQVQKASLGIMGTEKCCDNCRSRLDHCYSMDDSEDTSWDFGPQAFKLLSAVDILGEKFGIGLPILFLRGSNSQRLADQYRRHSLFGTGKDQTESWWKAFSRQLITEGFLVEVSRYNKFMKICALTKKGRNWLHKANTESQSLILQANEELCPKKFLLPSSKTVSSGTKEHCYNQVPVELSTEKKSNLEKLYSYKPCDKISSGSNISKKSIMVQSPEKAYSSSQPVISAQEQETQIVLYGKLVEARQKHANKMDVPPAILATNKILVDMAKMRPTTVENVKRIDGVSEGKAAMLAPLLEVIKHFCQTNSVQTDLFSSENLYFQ
The experiment is described as follows: WRN (BV08) ADP-Glo Assay. It counts as biochemical. As to conditions: WRN-BV08 (517-1235 L1074F) 0.15 nM, 0.1 nM DNA duplex, ATP, 15 min preincubation, 60 min at 25° C, pH 7.5; read-out: ADP-Glo_hWRN_IC50. The source says:
Example 2: WRN (BV08) ADP-Glo Assay Protocol
Bovine skin gelatin (BSG), dimethyl sulfoxide (DMSO), Pluronic F-127 and tris(2-carboxyethyl)phosphine hydrochloride solution (TCEP) were purchased from Sigma-Aldrich (St. Louis, MO) at the highest level of purity possible. Bicine buffer solution was purchased from Alfa Aesar (Tewksbury, MA) and compound NSC-617145 was purchased from Tocris (Minneapolis, MN). DNA duplex was synthesized at BGI (Shenzhen, China) and was composed of strand 1 with the sequence 5′-[…]-3′ (SEQ ID NO.: 1) and strand 2 with the sequence 5′-[…]-3′ (SEQ ID NO.: 2). DNA strands were annealed by heating to 95° C. for 5 minutes followed by slow cooling to room temperature. Compounds in 100% DMSO (0.1 μl) were spotted into a 384-well white polystyrene Optiplate-384 (Perkin Elmer; Waltham, MA) assay plate using a LabCyte Echo 550 (Agilent; Santa Clara, CA). DMSO (0.1 μl) was added to columns 12, rows A-H and column 24, rows I-P for the maximum signal control. Compound NSC-617145 (0.1 μl) was added to columns 12, rows I-P and 24, rows A-H for the minimum signal control (100% inhibition). Compounds/DMSO were preincubated for 15 minutes at 25° C. with 5 μl 2×WRN (BV08), prepared as described below, in assay buffer containing 20 mM Bicine (pH=7.5), 1 mM MgCl2, 10 mM KCl, 0.1% Pluronic F-127, 0.005% BSG, 1 mM TCEP. The reaction was initiated by the addition of 5 μl 2× substrate mixture in assay buffer and incubated for 60 minutes at 25° C. The final concentrations of the assay components were 0.15 nM WRN, 5 µM ATP, and 0.1 nM DNA duplex. The final DMSO concentration was 1% and the reference compound concentration (NSC-617145) used for the minimal signal control was 20 μM. The reaction was stopped by the addition of the ADP-Glo Kit components (Promega; Madison, WI) as directed and the relative luminescence units (RLU) were read on an Envision 2104 (Perkin Elmer; Waltham, MA).
Where RLU=relative luminescence units, sample=signal in sample well, and MIN and MAX are the respective minimum and maximum signal controls.
Y=Bottom+(Top−Bottom)/(1+(IC50/X)^Hill Slope)
Where top and bottom are normally allowed to float but may be fixed at 100 or 0 respectively in a 3-parameter fit. Y is the % inhibition and X is the compound concentration.
Molecular Biology and virus production. The DNA encoding human Werner helicase (Uniprot Q14191, amino acids 517-1235 with L1074F point mutation) was generated with codon-optimization for E. coli expression and subcloned into the pFastBac vector with a TEV cleavable 8×His tag (WRN—BV08). The baculovirus from the expression plasmid WRN—BV08 was generated from transfection and amplification following the manufacturer's instructions.
Sf9 cells grown in SF900II media were infected with 1:200 WRN—BV08 P2 virus and incubated for protein expression for 72 h at 27° C. The WRN protein was purified using the following protocol. The cell pellets were thawed and resuspended in buffer A (50 mM Tris, pH 7.5, 500 mM NaCl, 1 mM TCEP, 10% Glycerol) supplemented with 0.5% CHAPS, 1 mM [COMPOUND LEFT OUT], 1 μg/ml Leupeptin, 1 μg/ml Pepstatin, and the Pierce Universal Nuclease and cocktail tablet. Cleared lysates were loaded onto a Ni Sepharose™ excel column and washed with buffer A and bound protein was eluted with buffer A supplemented with 300 mM imidazole. The eluted protein was dialyzed against buffer A and digested by His-tagged TEV (1:5 ratio) overnight at 4° C. […]

T1 sequence (Q14191 whole entry): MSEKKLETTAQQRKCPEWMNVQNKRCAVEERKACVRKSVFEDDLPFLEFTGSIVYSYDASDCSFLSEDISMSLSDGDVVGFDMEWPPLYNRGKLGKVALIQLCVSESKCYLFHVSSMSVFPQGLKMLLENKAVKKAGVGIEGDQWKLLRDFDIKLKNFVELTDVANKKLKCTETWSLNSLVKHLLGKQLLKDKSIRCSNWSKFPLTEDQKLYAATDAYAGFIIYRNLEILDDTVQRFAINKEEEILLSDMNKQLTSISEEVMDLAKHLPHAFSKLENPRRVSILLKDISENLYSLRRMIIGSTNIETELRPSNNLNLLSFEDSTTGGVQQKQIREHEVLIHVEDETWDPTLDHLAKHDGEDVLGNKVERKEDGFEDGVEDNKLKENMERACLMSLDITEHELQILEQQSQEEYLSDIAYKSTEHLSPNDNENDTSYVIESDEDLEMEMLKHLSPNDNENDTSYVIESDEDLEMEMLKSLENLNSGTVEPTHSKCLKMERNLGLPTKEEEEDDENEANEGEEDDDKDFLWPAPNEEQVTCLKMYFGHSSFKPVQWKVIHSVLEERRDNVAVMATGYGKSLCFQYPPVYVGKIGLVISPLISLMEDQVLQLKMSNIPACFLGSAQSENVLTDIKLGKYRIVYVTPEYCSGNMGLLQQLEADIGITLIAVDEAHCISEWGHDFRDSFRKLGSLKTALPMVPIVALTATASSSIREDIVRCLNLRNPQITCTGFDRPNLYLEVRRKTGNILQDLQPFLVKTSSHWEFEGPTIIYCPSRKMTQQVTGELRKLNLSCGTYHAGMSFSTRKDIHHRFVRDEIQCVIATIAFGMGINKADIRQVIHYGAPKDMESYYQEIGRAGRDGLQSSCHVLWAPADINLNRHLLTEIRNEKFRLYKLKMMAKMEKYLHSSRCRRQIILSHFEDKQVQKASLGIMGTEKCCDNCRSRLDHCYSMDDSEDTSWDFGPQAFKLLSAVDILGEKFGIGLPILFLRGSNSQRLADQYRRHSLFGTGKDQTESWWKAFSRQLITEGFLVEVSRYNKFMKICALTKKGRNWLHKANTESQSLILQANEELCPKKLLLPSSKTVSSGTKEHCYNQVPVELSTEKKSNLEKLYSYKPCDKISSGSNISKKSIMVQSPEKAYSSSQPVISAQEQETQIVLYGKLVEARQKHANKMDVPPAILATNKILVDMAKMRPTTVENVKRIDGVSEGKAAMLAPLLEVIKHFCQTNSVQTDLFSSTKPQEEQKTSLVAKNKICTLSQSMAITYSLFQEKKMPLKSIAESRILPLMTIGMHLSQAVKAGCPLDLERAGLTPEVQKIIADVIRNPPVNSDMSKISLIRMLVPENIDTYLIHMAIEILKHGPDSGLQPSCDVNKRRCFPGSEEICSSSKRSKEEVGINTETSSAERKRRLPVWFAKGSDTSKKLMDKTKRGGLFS

For the compound `CCc1c(N2CCN(C(=O)c3ncnc(C)c3O)CC2)c(=O)c2nc(-c3ccnc(OC)c3)oc2n1CC(=O)NC12CC(C(F)(F)F)(C1)C2` [I-4, 2-(5-ethyl-6-(4-(5-hydroxy-6-methylpyrimidine-4-carbonyl)piperazin-1-yl)-2-(2-methoxypyridin-4-yl)-7-oxooxazolo[5,4-b]pyridin-4(7H)-y1)-N-(3-(trifluoromethyl)bicyclo[1.1.1]pentan-1-yl)acetamide], the EC50 on p21 (Homo sapiens) was greater than 5000 nM. Further, the IC50 at human Werner helicase was in the range of 5 to 50 nM.

For `CCc1c(N2CCN(C(=O)c3ncnc(C)c3O)CC2)c(=O)c2oc(-c3ccnc(OC)c3)nc2n1CC(=O)NC12CC(C(F)(F)F)(C1)C2` [I-3, 2-(5-ethyl-6-(4-(5-hydroxy-6-methylpyrimidine-4-carbonyl)piperazin-1-yl)-2-(2-methoxypyridin-4-yl)-7-oxooxazolo[4,5-b]pyridin-4(7H)-yl)-N-(3-(trifluoromethyl)bicyclo[1.1.1]pentan-1-yl)acetamide], on p21 (Homo sapiens), the EC50 is 2000 to 5000 nM.

Take `CCc1c(N2CCN(C(=O)c3ncnc(C)c3O)CC2)c(=O)c2oc(-c3ccnc(OC)c3)nc2n1CC(=O)Nc1ccc(C(F)(F)F)cc1Cl` [I-1, N-(2-chloro-4-(trifluoromethyl)phenyl)-2-(5-ethyl-6-(4-(5-hydroxy-6-methylpyrimidine-4-carbonyl)piperazin-1-y1)-2-(2-methoxypyridin-4-yl)-7-oxooxazolo[4,5-b]pyridin-4(7H)-yl)acetamide]: on p21 (Homo sapiens), the EC50 is no more than 500 nM. For the same compound, the IC50 at human Werner helicase was no more than 5 nM.

For `CCc1c(N2CCN(C(=O)c3ncnc(C)c3O)CC2)c(=O)c2nc(-c3ccnc(OC)c3)oc2n1CC(=O)Nc1ccc(C(F)(F)F)cc1Cl` [I-2, N-(2-chloro-4-(trifluoromethyl)phenyl)-2-(5-ethyl-6-(4-(5-hydroxy-6-methylpyrimidine-4-carbonyl)piperazin-1-yl)-2-(2-methoxypyridin-4-yl)-7-oxooxazolo[5,4-b]pyridin-4(7H)-yl)acetamide], the EC50 at p21 (Homo sapiens) was no more than 500 nM.

For the compound `CCc1c(N2CCN(C(=O)c3ncnc(C)c3O)CC2)c(=O)c2oc(-c3ccnc(OC)c3)nc2n1CC(=O)NC12CC(C(F)(F)F)(C1)C2` [1-3], the IC50 on human Werner helicase lay in the range of 5 to 50 nM.

Turning to `CCc1c(N2CCN(C(=O)c3ncnc(C)c3O)CC2)c(=O)c2nc(-c3ccnc(OC)c3)oc2n1CC(=O)Nc1ccc(C(F)(F)F)cc1Cl` [1-2], the IC50 on human Werner helicase was no more than 5 nM.

On to `CCc1c(N2CCN(C(=O)c3c(O)ccc4ncoc34)CC2)c(=O)c2oc(-c3ccnc(OC)c3)nc2n1CC(=O)Nc1ccc(C(F)(F)F)cc1Cl` [I-5, N-(2-chloro-4-(trifluoromethyl)phenyl)-2-(5-ethyl-6-(4-(6-hydroxybenzo[d]oxazole-7-carbonyl)piperazin-1-y1)-2-(2-methoxypyridin-4-yl)-7-oxooxazolo[4,5-b]pyridin-4(7H)-y1)acetamide], for which the EC50 on p21 (Homo sapiens) was no more than 500 nM. Also, on human Werner helicase, the IC50 was no more than 5 nM.
